IC50 data for 16 molecules are collected here from US20160046618A1, “Cyclopropyl Fused Thiazin-2-Amine Compounds as Beta-Secretase Inhibitors and Methods of Use” (AMGEN INC., priority 2014, published 2016).

For one experiment, the target named is human recombinant BACE1 (Homo sapiens (Human), UniProt P56817). The experiment can be described thus: In vitro enzymatic BACE1 FRET assay. As to conditions: read-out: IC50 IP (μM) BACE1 enzyme. It counts as biochemical. The method, boiled down:
(§1)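 Fluorescence from cleavage of a quenched peptide spanning the BACE site (50 nM) was read at 488 nm excitation, 590 nm emission. Purified enzyme (Ni-NTA) and compound reacted for one hour before a Tris stop shifted pH to neutral.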

A further experiment deals with human recombinant BACE2 (Homo sapiens (Human), UniProt Q9Y5Z0). The experiment in a line: In vitro enzymatic BACE2 FRET assay. Type of experiment: biochemical. Particulars: read-out: IC50 IP (μM) BACE2 enzyme. The method, boiled down: as §1
human recombinant BACE2, sequence (Q9Y5Z0 63-518): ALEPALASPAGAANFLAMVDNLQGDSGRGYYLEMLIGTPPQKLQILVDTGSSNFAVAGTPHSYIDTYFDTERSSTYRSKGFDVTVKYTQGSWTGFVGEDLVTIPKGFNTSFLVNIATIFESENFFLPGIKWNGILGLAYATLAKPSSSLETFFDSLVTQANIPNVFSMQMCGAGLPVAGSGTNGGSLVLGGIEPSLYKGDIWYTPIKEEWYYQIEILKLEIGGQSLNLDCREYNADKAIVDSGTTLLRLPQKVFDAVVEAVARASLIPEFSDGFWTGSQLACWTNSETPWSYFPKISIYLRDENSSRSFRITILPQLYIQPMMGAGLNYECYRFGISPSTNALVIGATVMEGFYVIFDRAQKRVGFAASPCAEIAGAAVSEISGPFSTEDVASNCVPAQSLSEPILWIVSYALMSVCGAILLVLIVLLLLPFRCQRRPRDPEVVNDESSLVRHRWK
A further experiment concerns the target Recombinant Cat D (Homo sapiens (Human), UniProt P07339). The experiment in a line: In vitro enzymatic Cathepsin D (Cat D) FRET assay. Type of experiment: biochemical. As to conditions: read-out: IC50 IP (μM) CatD. The method, boiled down: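 Cleavage of a 20 nM fluorophore/quencher peptide by CHO-expressed recombinant Cat D proceeded for one hour at pH 3.5 (0.05 M citrate, 5 mM CHAPS, 10% DMSO final). Tris addition neutralized the pH to end the reaction. Fluorescence was then measured (ex 500 nm/em 580 nm).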

The test system of experiment [1] is Aβ40 in conditioned medium of cells stably expressing Amyloid Precursor Protein (APP). The experiment in a line: In vitro BACE-1 cell-based assay (Aβ40 sandwich ELISA). As to conditions: read-out: IC50 IP (μM) BACE1 cell. A digest of the protocol: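 Aβ40 in supernatants measured by time-resolved fluorescence sandwich ELISA, with pAb40 as capture and biotin-6E10 as detector antibody, each incubated at 4 °C.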
On the technique in general: In an ELISA, binding on a coated surface is turned into a signal by an enzyme label.

SMILES strings stand for the structures.

Recombinant Cat D, sequence (P07339 65-412): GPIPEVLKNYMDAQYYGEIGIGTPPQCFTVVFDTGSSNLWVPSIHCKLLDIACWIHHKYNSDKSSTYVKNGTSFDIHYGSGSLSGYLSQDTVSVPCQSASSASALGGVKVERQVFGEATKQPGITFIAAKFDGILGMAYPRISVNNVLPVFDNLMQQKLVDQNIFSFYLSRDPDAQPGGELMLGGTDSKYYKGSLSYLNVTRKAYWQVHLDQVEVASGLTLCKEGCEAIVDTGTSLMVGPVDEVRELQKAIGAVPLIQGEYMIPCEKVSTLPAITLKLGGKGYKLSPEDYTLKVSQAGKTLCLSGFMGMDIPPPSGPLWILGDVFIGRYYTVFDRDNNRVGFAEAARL
human recombinant BACE1, sequence (P56817 46-501): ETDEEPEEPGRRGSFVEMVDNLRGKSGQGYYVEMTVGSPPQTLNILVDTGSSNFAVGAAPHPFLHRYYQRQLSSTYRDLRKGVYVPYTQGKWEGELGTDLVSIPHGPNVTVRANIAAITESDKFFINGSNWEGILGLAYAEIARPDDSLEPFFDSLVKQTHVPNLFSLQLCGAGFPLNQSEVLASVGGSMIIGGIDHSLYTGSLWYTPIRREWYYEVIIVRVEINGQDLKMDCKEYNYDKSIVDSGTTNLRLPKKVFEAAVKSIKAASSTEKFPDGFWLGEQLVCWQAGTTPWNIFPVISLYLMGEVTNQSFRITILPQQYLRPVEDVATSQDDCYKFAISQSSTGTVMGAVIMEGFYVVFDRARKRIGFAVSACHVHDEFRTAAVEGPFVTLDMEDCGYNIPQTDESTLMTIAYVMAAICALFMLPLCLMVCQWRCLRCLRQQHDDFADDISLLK

In the case of `COC[C@]12C[C@H]1[C@@](C)(c1cc(NC(=O)c3cnc(OCC(F)F)cn3)ccc1F)N=C(N)S2` [Example 1057, N-(3-((1S,5S,6S)-3-amino-1-(methoxymethyl)-5-methyl-2-thia-4-azabicyclo[4.1.0]hept-3-en-5-yl)-4-fluorophenyl)-5-(2,2-difluoroethoxy)-2-pyrazinecarboxamide], the half-maximal inhibitory concentration (IC50) was 0.0023 µM at human recombinant BACE1, 0.158 µM on human recombinant BACE2, greater than 400 µM at Recombinant Cat D and 0.0033 µM in experiment [1].
On the same counts, the results for `COC[C@]12C[C@H]1[C@@](C)(c1cc(NC(=O)c3cnc(OCC4CCO4)cn3)ccc1F)N=C(N)S2` (stereo partly drawn) [Example 1058, N-(3-((1S,5S,6S)-3-amino-1-(methoxymethyl)-5-methyl-2-thia-4-azabicyclo[4.1.0]hept-3-en-5-yl)-4-fluorophenyl)-5-(oxetan-2-ylmethoxy)pyrazine-2-carboxamide] are greater than 0.016 µM, 0.498 µM, greater than 400 µM and 0.01 µM.
The like results for `CC#CCCOc1cnc(C(=O)Nc2cc(F)c(F)c([C@@]3(C)N=C(N)S[C@@]4(COC)C[C@H]43)c2)cn1` [Example 1059, N-(3-((1S,5S,6S)-3-amino-1-(methoxymethyl)-5-methyl-2-thia-4-azabicyclo[4.1.0]hept-3-en-5-yl)-4,5-difluorophenyl)-5-(3-pentyn-1-yloxy)-2-pyrazinecarboxamide] were, in that order, 0.011 µM, 0.069 µM, 1320 µM and 0.02 µM.
On the same counts, the results for `C#CCCOc1cnc(C(=O)Nc2cc(F)c(F)c([C@@]3(C)N=C(N)S[C@@]4(COC)C[C@H]43)c2)cn1` [Example 1060, N-(3-((1S,5S,6S)-3-amino-1-(methoxymethyl)-5-methyl-2-thia-4-azabicyclo[4.1.0]hept-3-en-5-yl)-4,5-difluorophenyl)-5-(3-butyn-1-yloxy)-2-pyrazinecarboxamide] are 0.0074 µM, 0.13 µM, greater than 400 µM and 0.0076 µM.
As to `COC[C@]12C[C@H]1[C@@](C)(c1cc(NC(=O)c3cnc(OCC4(C)CC4)cn3)cc(F)c1F)N=C(N)S2` [Example 1061, N-(3-((1S,5S,6S)-3-amino-1-(methoxymethyl)-5-methyl-2-thia-4-azabicyclo[4.1.0]hept-3-en-5-yl)-4,5-difluorophenyl)-5-((1-methylcyclopropyl)methoxy)-2-pyrazinecarboxamide], the IC50 was 0.0047 µM at human recombinant BACE1, 0.17 µM at human recombinant BACE2, greater than 400 µM on Recombinant Cat D and 0.0039 µM in experiment [1].
On the same counts, the results for `COC[C@]12C[C@H]1[C@@](C)(c1cc(NC(=O)c3cnc(OCC4(C)COC4)cn3)cc(F)c1F)N=C(N)S2` [Example 1062, N-(3-((1S,5S,6S)-3-amino-1-(methoxymethyl)-5-methyl-2-thia-4-azabicyclo[4.1.0]hept-3-en-5-yl)-4,5-difluorophenyl)-5-((3-methyl-3-oxetanyl)methoxy)-2-pyrazinecarboxamide] are greater than 16 µM, 0.658 µM, greater than 400 µM and 0.022 µM.
On the same counts, the results for `COC[C@]12C[C@H]1[C@@](C)(c1cc(NC(=O)c3cnc(OCCF)cn3)cc(F)c1F)N=C(N)S2` [Example 1064, N-(3-((1S,5S,6S)-3-amino-1-(methoxymethyl)-5-methyl-2-thia-4-azabicyclo[4.1.0]hept-3-en-5-yl)-4,5-difluorophenyl)-5-(2-fluoroethoxy)-2-pyrazinecarboxamide] are 0.0027 µM, 0.081 µM, greater than 400 µM and 0.0047 µM.
Regarding `COC[C@]12C[C@H]1[C@@](C)(c1cc(NC(=O)c3cnc(OCC(F)(F)F)cn3)cc(C)c1F)N=C(N)S2` [Example 1065, N-(3-((1S,5S,6S)-3-amino-1-(methoxymethyl)-5-methyl-2-thia-4-azabicyclo[4.1.0]hept-3-en-5-yl)-4-fluoro-5-methylphenyl)-5-(2,2,2-trifluoroethoxy)-2-pyrazinecarboxamide], the half-inhibitory concentration (IC50) on human recombinant BACE1 turned out to be 0.000256 µM; on human recombinant BACE2, 0.0636 µM; on Recombinant Cat D, 1580 µM; in experiment [1], 0.00294 µM.
The like results for `COC[C@]12C[C@H]1[C@@](C)(c1cc(NC(=O)c3ccc(Cl)cn3)cc(C)c1F)N=C(N)S2` [Example 1066, N-(3-((1S,5S,6S)-3-amino-1-(methoxymethyl)-5-methyl-2-thia-4-azabicyclo[4.1.0]hept-3-en-5-yl)-4-fluoro-5-methylphenyl)-5-chloro-2-pyridinecarboxamide] were, in that order, 0.00161 µM, 0.00099 µM, greater than 400 µM and 0.00347 µM.
As to `COC[C@]12C[C@H]1[C@@](C)(c1cc(NC(=O)c3cnc(OC4COC4)cn3)ccc1F)N=C(N)S2` [Example 1067, N-(3-((1S,5S,6S)-3-amino-1-(methoxymethyl)-5-methyl-2-thia-4-azabicyclo[4.1.0]hept-3-en-5-yl)-4-fluorophenyl)-5-(oxetan-3-yloxy)pyrazine-2-carboxamide], the IC50 on human recombinant BACE1 worked out at 0.0264 µM; at human recombinant BACE2 it was 1.63 µM; at Recombinant Cat D, 2050 µM; in experiment [1], 0.0238 µM.
The like results for `COC[C@]12C[C@H]1[C@@](C)(c1cc(NC(=O)c3cnc(OCC(C)(C)C)cn3)cc(F)c1F)N=C(N)S2` [Example 1069, N-(3-((1S,5S,6S)-3-amino-1-(methoxymethyl)-5-methyl-2-thia-4-azabicyclo[4.1.0]hept-3-en-5-yl)-4,5-difluorophenyl)-5-(neopentyloxy)pyrazine-2-carboxamide] were, in that order, 0.0174 µM, 0.878 µM, 1060 µM and 0.214 µM.
As to `COC[C@]12C[C@H]1[C@@](C)(c1cc(NC(=O)c3cnc(OCc4ncco4)cn3)cc(C)c1F)N=C(N)S2` [Example 1071, N-(3-((1S,5S,6S)-3-amino-1-(methoxymethyl)-5-methyl-2-thia-4-azabicyclo[4.1.0]hept-3-en-5-yl)-4-fluoro-5-methylphenyl)-5-(oxazol-2-ylmethoxy)pyrazine-2-carboxamide], the IC50 at human recombinant BACE1 was found to be 0.000768 µM; on human recombinant BACE2, 0.0304 µM; at Recombinant Cat D, 1430 µM; in experiment [1] it was 0.00025 µM.
On the same counts, the results for `C#CCOc1cnc(C(=O)Nc2cc(C)c(F)c([C@@]3(C)N=C(N)S[C@@]4(C(F)F)C[C@@H]34)c2)cn1` [Example 1072, N-(3-((1S,5S,6S)-3-amino-1-(difluoromethyl)-5-methyl-2-thia-4-azabicyclo[4.1.0]hept-3-en-5-yl)-4-fluoro-5-methylphenyl)-5-(prop-2-yn-1-yloxy)pyrazine-2-carboxamide] are 0.00032 µM, 0.00983 µM, 143 µM and 0.000345 µM.
With `Cc1cc(NC(=O)c2cnc(OCC(F)(F)F)cn2)cc([C@@]2(C)N=C(N)S[C@@]3(C(F)F)C[C@@H]23)c1F` [Example 1073, N-(3-((1S,5S,6S)-3-amino-1-(difluoromethyl)-5-methyl-2-thia-4-azabicyclo[4.1.0]hept-3-en-5-yl)-4-fluoro-5-methylphenyl)-5-(2,2,2-trifluoroethoxy)pyrazine-2-carboxamide], the IC50 at human recombinant BACE1 was determined as 0.000842 µM; on human recombinant BACE2 it was 0.0515 µM; on Recombinant Cat D, 1300 µM; in experiment [1] it was 0.00323 µM.
Take `Cc1cc(NC(=O)c2cnc(OCc3ncco3)cn2)cc([C@@]2(C)N=C(N)S[C@@]3(C(F)F)C[C@@H]23)c1F` [Example 1074, N-(3-((1S,5S,6S)-3-amino-1-(difluoromethyl)-5-methyl-2-thia-4-azabicyclo[4.1.0]hept-3-en-5-yl)-4-fluoro-5-methylphenyl)-5-(oxazol-2-ylmethoxy)pyrazine-2-carboxamide]: the IC50 is 0.00057 µM at human recombinant BACE1, 0.0167 µM at human recombinant BACE2, 1330 µM at Recombinant Cat D and 0.000489 µM in experiment [1].
On the same counts, the results for `Cc1noc(COc2cnc(C(=O)Nc3cc(C)c(F)c([C@@]4(C)N=C(N)S[C@@]5(C(F)F)C[C@@H]45)c3)cn2)n1` [Example 1075, N-(3-((1S,5S,6S)-3-amino-1-(difluoromethyl)-5-methyl-2-thia-4-azabicyclo[4.1.0]hept-3-en-5-yl)-4-fluoro-5-methylphenyl)-5-((3-methyl-1,2,4-oxadiazol-5-yl)methoxy)pyrazine-2-carboxamide] are 0.00152 µM, 0.198 µM, 1250 µM and 0.00153 µM.

As usually defined, the IC50 is the point on the concentration scale where inhibition reaches its midpoint.
